In patent US20240116877A1, “KIT KINASE INHIBITORS AND METHODS OF USE THEREOF” (Deciphera Pharmaceuticals, LLC, priority 2021, published 2024):
Read-outs that look alike come from different tables or passages of the source.

Experiments:
c-KIT kinase (uKIT) = c-KIT kinase (uKIT) (Homo sapiens (Human), UniProt P10721); assay: Biochemical Assay for uKIT (coupled pyruvate kinase/lactate dehydrogenase assay); settings: Inhibition of biochemical activity of uKIT kinase; 1 mM ATP
Experimental: Biochemical Assay for uKIT
Activity of c-KIT kinase (SEQ. ID NO. 1 or SEQ. ID NO. 2) was determined spectroscopically using a coupled pyruvate kinase/lactate dehydrogenase assay that continuously monitors the ATP hydrolysis-dependent oxidation of NADH (e.g., Schindler et al. Science (2000) 289: 1938-1942). Assays were conducted in 384-well plates (100 μL final volume) using 16 nM (Decode, SEQ ID No. 1) or 4.36 nM (Signal Chem, SEQ. ID No. 2), 0.7 mg/mL PE4Y substrate, 1.5 units pyruvate kinase, 2.1 units lactate dehydrogenase, 1 mM phosphoenol pyruvate, 0.28 mM NADH and 1 mM ATP in assay buffer (100 mM Tris, pH 7.5, 15 mM MgCl2, 0.5 mM DTT, 0.1% octyl-glucoside, 0.002% (w/v) BSA, and 0.002% Triton X-100). Inhibition of KIT was measured by adding serial diluted test compound (final assay concentration of 1% DMSO). A decrease in absorption at 340 nm was monitored continuously for 6 h at 30° C. on a multi-mode microplate reader (BioTek). The reaction rate was calculated using the 2-3 h time frame. The reaction rate at each concentration of compound was converted to percent inhibition using controls (i.e., reaction with no test compound and reaction with a known inhibitor) and IC50 values were calculated using software routines in Prism (GraphPad software).

Ba/F3 KIT mutant cells = assay: Ba/F3 mutant KIT Cell Proliferation Assays (resazurin); assay type: cell-based; settings: Mus musculus, BaF3
Experimental: Ba/F3 KIT Mutant Cell Line Transduction and Expansion
Several different KIT cDNA encoding various primary and secondary mutations were cloned into a pLV(Exp]-CMV>(cDNA):IRES:puro vector. These vectors were constructed and packaged by VectorBuilder.
Exponentially grown Ba/F3 cells (1×10^6 cells in 1 ml medium) were infected with 60 μl of viral suspension in a 6-well plate in the presence of mIL-3 (10 ng/ml) and polybrene (7.5 μg/ml) (Vector Builder) and incubated for 16 h. After 16 h, the cells were centrifuged, and viral supernatant was discarded. The cells were then re-suspended in fresh medium and allowed to recover for another day. After 72 h post infection, the cells were seeded with complete medium with mIL-3 and with 1 μg/ml puromycin added to medium for selection. After 48 h, cells without viral infection die, whereas successfully transduced cells were collected and changed to fresh medium with 5 ng/ml of IL-3. After a week or two with gradual withdrawal of mIL3 the cells that can continue to proliferate in the absence of mIL3 were exponentially expanded and were frozen down for banking.
Ba/F3 mutant KIT Cell Proliferation Assays
A serial dilution of test compound was dispensed into a 384-well black clear bottom plate (Corning, Corning, NY). Six hundred and twenty-five cells were added per well in 50 μL complete growth medium. Plates were incubated for 68 h at 37° C., 5% CO2, 95% humidity. At the end of the incubation period 10 μL of a 440 μM solution of resazurin (Sigma, St. Louis, MO) in PBS was added to each well and incubated for an additional 5 h at 37° C., 5% CO2, 95% humidity. Plates were read on a Synergy2 reader (Biotek, Winooski, VT) using an excitation of 540 nm and an emission of 600 nm. Data was analyzed using Prism software (Graphpad, San Diego, CA) to calculate IC50 values.

[1] = Ba/F3 KIT AYdup-V654A mutant cell proliferation, read-out: AYdup-V654A IC50
[2] = Ba/F3 KIT exon11del-V654A mutant cell proliferation, read-out: exon11del-V654A IC50
[3] = Ba/F3 KIT exon11del-Y823D mutant cell proliferation, read-out: exon11del-Y823D IC50

c-KIT kinase (uKIT), sequence (P10721 other isoform, or with tags, fused parts or gaps): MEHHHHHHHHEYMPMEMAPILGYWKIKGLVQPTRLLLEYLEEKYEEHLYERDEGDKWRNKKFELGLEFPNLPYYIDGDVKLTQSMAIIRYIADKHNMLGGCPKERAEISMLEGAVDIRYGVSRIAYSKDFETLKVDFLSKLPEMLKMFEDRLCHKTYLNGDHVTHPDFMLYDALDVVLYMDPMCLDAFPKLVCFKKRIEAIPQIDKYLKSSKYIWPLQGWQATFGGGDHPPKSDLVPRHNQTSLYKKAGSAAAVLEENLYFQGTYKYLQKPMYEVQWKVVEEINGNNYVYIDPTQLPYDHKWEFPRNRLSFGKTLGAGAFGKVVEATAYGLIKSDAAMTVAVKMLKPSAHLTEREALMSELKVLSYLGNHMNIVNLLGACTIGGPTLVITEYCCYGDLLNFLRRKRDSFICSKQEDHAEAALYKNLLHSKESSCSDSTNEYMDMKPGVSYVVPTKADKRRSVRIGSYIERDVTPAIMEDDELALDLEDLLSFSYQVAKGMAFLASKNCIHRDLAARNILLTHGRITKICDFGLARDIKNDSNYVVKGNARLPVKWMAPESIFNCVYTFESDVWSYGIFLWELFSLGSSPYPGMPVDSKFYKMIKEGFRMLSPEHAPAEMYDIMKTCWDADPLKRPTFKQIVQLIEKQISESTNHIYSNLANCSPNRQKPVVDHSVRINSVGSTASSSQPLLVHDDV

SMILES | IC50 (c-KIT kinase (uKIT)) [nM] | IC50 (Ba/F3 KIT mutant cells; [1]) [nM] | IC50 (Ba/F3 KIT mutant cells; [2]) [nM] | IC50 (Ba/F3 KIT mutant cells; [3]) [nM]
COCCOc1cc(OC)c2c(Nc3ccc(NC(=O)CC(=O)NCC(C)(C)C)cc3)ncnc2c1 [Example 204] | 10 to 100 | 10 to 100 | 100 to 1000 | 10 to 100
COc1cc2ncnc(Nc3ccc(NC(=O)NCCC(C)(C)F)cc3)c2cc1OC [Example 209] | 10 to 100 | > 1000 | 100 to 1000 | > 1000
COc1cc2ncnc(Nc3ccc(NC(=O)NCCC(C)(C)OC)cc3)c2cc1OC [Example 210] | 10 to 100 | > 1000 | > 1000 | > 1000
COCCOc1ccc2c(Nc3ccc(NC(=O)CC(=O)NCC(C)(C)C)cn3)ccnc2c1 [Example 205] | > 1000 | > 1000 | > 1000 | > 1000
COCCOc1ccc2c(Nc3ccc(NC(=O)CC(=O)NCC(C)(C)C)cn3)ncnc2c1 [Example 229] | 100 to 1000 | – | – | –
COCCOc1cc2ncnc(Nc3ccc(NC(=O)NCCC(C)(C)F)cc3)c2cc1OCCOC [Example 222] | 10 to 100 | – | – | –
CC(C)(F)CCNC(=O)Nc1ccc(Nc2ncnc3cc(OCC(=O)O)cc(F)c23)cc1 [Example 224] | 10 to 100 | – | – | –
COCCOc1ccc2c(Nc3ccc(NC(=O)NCCC(C)(C)OC)cn3)ncnc2c1 [Example 228] | 10 to 100 | – | – | –
COc1cc2ncnc(Nc3ccc(NC(=O)CC(=O)NCC(C)(C)C)cc3)c2cc1OCCCN1CCOCC1 [Example 206] | 100 to 1000 | 100 to 1000 | > 1000 | > 1000
COc1cc(F)c2c(Nc3ccc(NC(=O)CC(=O)NCC(C)(C)C)cc3)ncnc2c1 [Example 211] | 10 to 100 | 10 to 100 | 10 to 100 | 10 to 100
COCCOc1ccc2c(Nc3ccc(NC(=O)NCCC(C)(C)C#N)cn3)ncnc2c1 [Example 226] | 100 to 1000 | – | – | –
COCCOc1ccc2c(Nc3ccc(NC(=O)NCCC(C)(C)OC)cc3)ncnc2c1 [Example 225] | ≤ 10 | – | – | –
COCCOc1ccc2ncnc(Nc3ccc(NC(=O)CC(=O)NC4CCCC4)cc3)c2c1F [Example 201] | 100 to 1000 | 100 to 1000 | > 1000 | > 1000
COCCOc1cc(F)c2c(Nc3ccc(NC(=O)C(=O)NC(C)(C)C)cc3)ncnc2c1 [Example 134] | > 1000 | > 1000 | 100 to 1000 | > 1000
COCCOc1ccc2c(Nc3ccc(NC(=O)CC(=O)NCC(C)(C)C)cc3)ncnc2c1 [Example 221] | 10 to 100 | 10 to 100 | 100 to 1000 | 100 to 1000
COc1cc(F)c2c(Nc3ccc(NC(=O)NCCC(C)(C)C#N)cc3)ncnc2c1 [Example 219] | 10 to 100 | 10 to 100 | 10 to 100 | 10 to 100
COCCOc1cc(F)c2c(Nc3ccc(NC(=O)CCC(=O)NC(C)C)cc3)ncnc2c1 [Example 87] | 10 to 100 | 100 to 1000 | 100 to 1000 | –

SMILES | IC50 (c-KIT kinase (uKIT)) [nM] | IC50 (Ba/F3 KIT mutant cells; [1]) [nM] | IC50 (Ba/F3 KIT mutant cells; [2]) [nM] | IC50 (Ba/F3 KIT mutant cells; [3]) [nM]
CN(C)CCOc1cc(F)c2c(Nc3ccc(NC(=O)NCCC(C)(C)C#N)cc3)ncnc2c1 [Example 80] | > 1000 | – | > 1000 | –
COCCOc1cc(F)c2c(Nc3ccc(NC(=O)CC(=O)N4[C@@H](C)COC[C@@H]4C)cc3)ncnc2c1 [Example 199] | 100 to 1000 | > 1000 | > 1000 | > 1000
COc1cc(F)c2c(Nc3ccc(NC(=O)NCCC(C)(C)OC)cc3)ncnc2c1 [Example 202] | 10 to 100 | 10 to 100 | 10 to 100 | 10 to 100
COCCOc1ccc2ncnc(Nc3ccc(NC(=O)CC(=O)NCC(C)(C)C)cc3)c2c1F [Example 217] | 100 to 1000 | 100 to 1000 | > 1000 | > 1000
COCCOc1ccc2c(Nc3ccc(NC(=O)NCCC(C)(C)F)cc3)ncnc2c1 [Example 220] | ≤ 10 | 100 to 1000 | 100 to 1000 | 10 to 100
COCCOc1ccc2ncnc(Nc3ccc(NC(=O)NCCC(C)(C)OC)cc3)c2c1F [Example 215] | 10 to 100 | 100 to 1000 | 100 to 1000 | 100 to 1000
COc1cc2ncnc(Nc3ccc(NC(=O)CC(=O)NCC(C)(C)C)cc3)c2cc1OC [Example 213] | 10 to 100 | 100 to 1000 | > 1000 | > 1000
COc1cc2ncnc(Nc3ccc(NC(=O)NCCC(C)(C)C#N)cc3)c2cc1OC [Example 218] | – | 100 to 1000 | > 1000 | > 1000
COc1cc(F)c2c(Nc3ccc(NC(=O)NCCC(C)(C)F)cc3)ncnc2c1 [Example 203] | ≤ 10 | 10 to 100 | 10 to 100 | 10 to 100
COCCOc1ccc2ncnc(Nc3ccc(NC(=O)CC(=O)NC4CCC4)cc3)c2c1F [Example 207] | 100 to 1000 | 100 to 1000 | > 1000 | > 1000
COCCOc1ccc2ncnc(Nc3ccc(NC(=O)CC(=O)NC(C)(C)C)cc3)c2c1F [Example 208] | > 1000 | > 1000 | > 1000 | > 1000
COCCOc1ccc2c(Nc3ccc(NC(=O)NCCC(C)(C)F)cn3)ncnc2c1 [Example 227] | 100 to 1000 | – | – | –
COCCCc1ccc2c(Nc3ccc(NC(=O)CC(=O)NCC(C)(C)C)cc3)cnnc2c1 [Example 193] | 10 to 100 | – | – | –
COCCOc1ccc2ncnc(Nc3ccc(NC(=O)NCCC(C)(C)C#N)cc3)c2c1F [Example 216] | 10 to 100 | 100 to 1000 | 100 to 1000 | 100 to 1000
COCCOc1ccc2ncnc(Nc3ccc(NC(=O)NCCC(C)(C)F)cc3)c2c1F [Example 200] | 100 to 1000 | > 1000 | > 1000 | > 1000
COCCOc1ccc2c(Nc3ccc(NC(=O)CC(=O)NCC(C)(C)C)cc3)ccnc2c1 [Example 223] | 100 to 1000 | – | – | –
COCCOc1cc(F)c2c(Nc3ccc(NC(=O)CC(=O)N4[C@H](C)COC[C@@H]4C)cc3)ncnc2c1 [Example 212] | – | 100 to 1000 | > 1000 | > 1000
